Assay results reported in patent US6486326B2, “iso-CBI and iso-CI analogs of CC-1065 duocarmycins” (The Scripps Research Institute, priority 1997, dated 2002).
Several values for one entry are separate records, joined by “and”; a condition that tells them apart may be missing. Equal values may be shown once.

What was measured:
w836 DNA (146 bp) = assay: DNA alkylation selectivity and efficiency, thermally-induced strand cleavage of w836 DNA; assay type: biochemical
Method: FIG. 6 illustsrates thermally-induced strand cleavage of w836 DNA (146 bp, nucleotide nos. 5189-91): DNA-agent incubation for 24 h ((−)-iso-CBI-TMI) at 25° C., removal of unbound agent and 30 min of thermolysis (100° C.), followed by denaturing 8% PAGE and autoradiography; lane 1, control DNA; lanes 2-5, Sanger G, C, A, and T sequencing reactions; lanes 6-8 (−)-iso-CBI-TMI ([…] to 1×10^−5 M); lanes 9-10, (+)-duocarmycin SA (1×10^−5 to 1×10^−6 M); lanes 11-12, (+)-iso-CBI-TMI (1×10^−2 and 1×10^−3).
DNA Alkylation Selectivity and Efficiency: The DNA alkylation properties of the agents were examined within w794 and w836 duplex DNA for which comparative results are available for related agents. (Boger, D. L., et al., J. Am. Chem. Soc. 1994, 116, 11335; Boger, D. L., et al., J. Am. Chem. Soc. 1994, 116, 6461; and Boger, D. L., et al., J. Am. Chem. Soc. 1995, 117, 11647) The alkylation site identification and the assessment of the relative selectivity among the available sites were obtained by thermally-induced strand cleavage of the singly 5′ end-labeled duplex DNA after exposure to the agents. […]

calf thymus DNA = assay: Calf thymus DNA alkylation, quantitation of adenine N3 adduct; assay type: biochemical; settings: for conversion to thermally released adenine adduct 66: 4° C., 72 h, ca. 150 bp, then 100° C., 30 min, pH 7.0, four runs
Method: This was addressed through a study of the alkylation of calf thymus DNA. Optimized conditions for the alkylation were established for (−)-44 on an analytical scale (100 μg of agent). For this purpose, the long-wavelength UV absorption of the agent and the adduct provided a useful quantitative measure of the adenine adduct, unreacted starting material and any side products (solvolysis or rearrangement), Table 3. Analytical HPLC analysis was used to confirm the identity of the products through correlation of retention times and UV spectral data with authentic materials. The preparative DNA alkylation reaction and subsequent isolation of (+)-66 was carried out under conditions determined to provide complete consumption of the agent in the presence of a large excess of DNA Thus, extraction (EtOAc) of the aqueous buffer solution containing calf thymus DNA following alkylation (4° C., 72 h, 150 bp) afforded no recovered (−)-44, and only a small amount (<5%) of the rearranged product 65. Conducting the reaction at 4° C. in the presence of a large excess of DNA precluded competitive solvolysis. Thermal treatment of the alkylated DNA in aqueous 10 mM sodium phosphate buffer (100° C., 30 min, pH 7.0) followed by EtOAc extraction provided 66 in 90-95% conversion, ≧95% purity (by HPLC). Repeating this thermal treatment provided little or no additional adduct. No trace of a competing guanine adduct could be detected. This high conversion to a single adduct established that 44 participates exclusively in the adenine N3 alkylation reaction under the conditions examined.

COc1cc2cc(C(=O)N3CC4CC45C(=O)c4ccccc4C=C35)[nH]c2c(OC)c1OC (single isomer, unassigned; (-)) [(−)-iso-CBI-TMI, 2-[(5,6,7-Trimethoxyindol-2-yl)carbonyl]-1,2,9,9a-tetrahydrocyclopropa[c]benzo[f]indol-8-one]
DNA alkylation sites / selectivity (w836 DNA (146 bp)): same sites as (+)-duocarmycin SA
conversion to thermally released adenine adduct 66 (calf thymus DNA): 95% and 90-95%
conversion to thermally released adenine adduct 66 (calf thymus DNA; listed as (−)-44): 90-95%
consumption of the agent accounted for by adenine N3 addition (calf thymus DNA; in the presence of duplex DNA): 90-100%
